How the values were obtained:
[1] = tested on: WEEV California; test: microbe, parasite or virus in culture; assay type: cell-based; conditions: Western equine encephalitis virus, Vero 76, 48 h, read-out: WEEV California EC50 nM
[2] = tested on: VEEV TC83; test: microbe, parasite or virus in culture; assay type: cell-based; conditions: Venezuelan equine encephalitis virus, Vero 76, 48 h, read-out: VEEV TC83 EC50 nM

Question: How did the EC50 [1] turn out when `COc1ccc(-n2c([C@H]3CCCN3C)nc3c(-c4cn(C)cn4)cc(C#N)cc3c2=O)cc1F` [Example 98, (R)-3-(3-fluoro-4-methoxyphenyl)-8-(1-methyl-1H-imidazol-4-yl)-2-(1-methylpyrrolidin-2-yl)-4-oxo-3,4-dihydroquinazoline-6-carbonitrile] was run?
Answer: Its EC50 is 1 to 50 nM.

Question: What about the EC50 [2] of the same compound?
Answer: The EC50 was 1 to 50 nM.

Question: `COc1ccc(-n2c([C@@H]3CCCN3)nc3c(-c4ccncc4)cc([N+](=O)[O-])cc3c2=O)cc1F` [Example 84, (S)-3-(3-fluoro-4-methoxyphenyl)-6-nitro-8-(pyridin-4-yl)-2-(pyrrolidin-2-yl) quinazolin-4 (3H)-one] was tested. Which EC50 [1] did it give?
Answer: The EC50 was 1 to 50 nM.

Question: And the EC50 [2]?
Answer: Its EC50 is 1 to 50 nM.

Question: `COc1ccc(-n2c([C@H]3CCCN3)nc3c(C)cc(C#N)cc3c2=O)cc1` [Example 50, (R)-3-(4-methoxyphenyl)-8-methyl-4-oxo-2-(pyrrolidin-2-yl)-3,4-dihydroquinazoline-6-carbonitrile] was tested. Which EC50 [1] did it give?
Answer: The EC50 was 1 to 50 nM.

Question: What about the EC50 [2] of the same compound?
Answer: Its EC50 is 1 to 50 nM.

Question: Which EC50 [1] does the source give for `COc1ccc(-n2c(C3CCCN3)nc3c(-c4ccc(OC)c(OC)c4)cc(C#N)cc3c2=O)cc1F` (centres unmarked) [Example 152, 8-(3,4-Dimethoxyphenyl)-3-(3-fluoro-4-methoxyphenyl)-4-oxo-2-(pyrrolidin-2-yl)-3,4-dihydroquinazoline-6-carbonitrile] here?
Answer: The EC50 was 1 to 50 nM.

Question: And the EC50 [2]?
Answer: Its EC50 is 1 to 50 nM.

Question: Which results are given for `COc1ccc(-n2c([C@H]3CCCN3)nc3c(-c4cncnc4)cc([N+](=O)[O-])cc3c2=O)cc1F` [Example 88, (R)-3-(3-fluoro-4-methoxyphenyl)-6-nitro-8-(pyrimidin-5-yl)-2-(pyrrolidin-2-yl) quinazol-in-4 (3H)-one]?
Answer: EC50 [1]: 1 to 50 nM; EC50 [2]: 1 to 50 nM

Question: For `COc1ccc(-n2c([C@@H]3CCN(C)C3)nc3c(C)cc([N+](=O)[O-])cc3c2=O)cc1F` [Example 68, (R)-3-(3-fluoro-4-methoxyphenyl)-8-methyl-2-(1-methylpyrrolidin-3-yl)-6-nitroquinazolin-4 (3H)-one], which EC50 [1] is on record?
Answer: The EC50 was 151 to 500 nM.

Question: What about the EC50 [2] of the same compound?
Answer: The EC50 was 151 to 500 nM.

Question: How did the EC50 [1] turn out when `COc1ccc(-n2c([C@H]3CCCN3)nc3c([N+](=O)[O-])cccc3c2=O)cc1` [Example 47, (R)-3-(4-methoxyphenyl)-8-nitro-2-(pyrrolidin-2-yl)quinazolin-4 (3H)-one] was run?
Answer: The EC50 was greater than 1000 nM.

Question: And the EC50 [2]?
Answer: The EC50 was greater than 1000 nM.

Question: How did the EC50 [1] turn out when `Cc1ccccc1-n1c([C@H]2CCCN2)nc2ccc([N+](=O)[O-])cc2c1=O` [Example 35, (R)-6-nitro-2-(pyrrolidin-2-yl)-3-(o-tolyl)quinazolin-4 (3H)-one] was run?
Answer: The EC50 was greater than 1000 nM.

Question: And the EC50 [2]?
Answer: The EC50 was greater than 1000 nM.

Question: How did the EC50 [1] turn out when `COc1ccc(-n2c([C@@H]3CCCN3)nc3ccc([N+](=O)[O-])cc3c2=O)cc1` [Example 12, (S)-3-(4-methoxyphenyl)-6-nitro-2-(pyrrolidin-2-yl) quinazolin-4 (3H)-one] was run?
Answer: Its EC50 is 151 to 500 nM.

Question: And the EC50 [2]?
Answer: Its EC50 is 1 to 50 nM.

Question: Which EC50 [1] does the source give for `COc1ccc(-n2c([C@H]3Cc4ccccc4N3)nc3c(-c4ccc(C)nc4)cc(C#N)cc3c2=O)cc1F` [Example 128, (R)-3-(3-fluoro-4-methoxyphenyl)-2-(indolin-2-yl)-8-(6-methylpyridin-3-yl)-4-oxo-3,4-dihydroquinazoline-6-carbonitrile] here?
Answer: Its EC50 is 151 to 500 nM.

Question: And the EC50 [2]?
Answer: Its EC50 is 1 to 50 nM.

Question: For `COc1ccc(-n2c([C@H]3CCNC3)nc3c(C)cc([N+](=O)[O-])cc3c2=O)cc1F` [Example 65, (S)-3-(3-fluoro-4-methoxyphenyl)-8-methyl-6-nitro-2-(pyrrolidin-3-yl) quinazolin-4 (3H)-one], which EC50 [1] is on record?
Answer: The EC50 was 51 to 150 nM.

Question: And the EC50 [2]?
Answer: The EC50 was 51 to 150 nM.

Question: For `CN1CCC(N2CCC[C@@H]2c2nc3ccc([N+](=O)[O-])cc3c(=O)n2-c2ccccc2)CC1` [Example 4, (R)-2-(1-(1-methylpiperidin-4-yl)pyrrolidin-2-yl)-6-nitro-3-phenylquinazolin-4 (3H)-one], which EC50 [1] is on record?
Answer: The EC50 was greater than 1000 nM.

Question: What about the EC50 [2] of the same compound?
Answer: Its EC50 is 151 to 500 nM.

Question: What does the source list for `COc1ccc(-n2c([C@H]3C[C@H](F)CN3)nc3c(-c4ccc(C)nc4)cc(C#N)cc3c2=O)cc1F` [Example 112, 3-(3-fluoro-4-methoxyphenyl)-2-((2R,4S)-4-fluoropyrrolidin-2-yl)-8-(6-methylpyridin-3-yl)-4-oxo-3,4-dihydroquinazoline-6-carbonitrile]?
Answer: EC50 [1]: 51 to 150 nM; EC50 [2]: 1 to 50 nM

Question: Which results are given for `COc1ccc(-n2c([C@H]3CCCN3C)nc3c(-c4ccoc4)cc(C#N)cc3c2=O)cc1F` [Example 115, (R)-3-(3-fluoro-4-methoxyphenyl)-8-(furan-3-yl)-2-(1-methylpyrrolidin-2-yl)-4-oxo-3,4-dihydroquinazoline-6-carbonitrile]?
Answer: EC50 [1]: 1 to 50 nM; EC50 [2]: 1 to 50 nM

Question: With `COc1ccc(-c2cc(C#N)cc3c(=O)n(-c4ccc(OC)c(F)c4)c(C4CCCN4)nc23)cc1` (centres unmarked) [Example 147, 3-(3-Fluoro-4-methoxyphenyl)-8-(4-methoxyphenyl)-4-oxo-2-(pyrrolidin-2-yl)-3,4-dihydroquinazoline-6-carbonitrile] as the compound, how does the EC50 [1] read?
Answer: The EC50 was 1 to 50 nM.

Question: What about the EC50 [2] of the same compound?
Answer: The EC50 was 1 to 50 nM.

Question: For `COc1ccc(-n2c([C@H]3CCCN3)nc3c(-c4ccncc4)cc(C#N)cc3c2=O)cc1F` [Example 109, (R)-3-(3-fluoro-4-methoxyphenyl)-4-oxo-8-(pyridin-4-yl)-2-(pyrrolidin-2-yl)-3,4-dihydroquinazoline-6-carbonitrile], which EC50 [1] is on record?
Answer: Its EC50 is 1 to 50 nM.

Question: What about the EC50 [2] of the same compound?
Answer: Its EC50 is 1 to 50 nM.

Question: What does the source list for `COc1c(F)cc(-n2c(C3CCNC3)nc3c(-c4ccc(C)nc4)cc(C#N)cc3c2=O)cc1F` (centres unmarked) [Example 188, 3-(3,5-difluoro-4-methoxyphenyl)-8-(6-methylpyridin-3-yl)-4-oxo-2-(pyrrolidin-3-yl)-3,4-dihydroquinazoline-6-carbonitrile]?
Answer: EC50 [1]: 1 to 50 nM; EC50 [2]: 1 to 50 nM

Question: What does the source list for `COc1ccc(-n2c([C@H]3CCCN3)nc3c(-c4cncnc4)cc(C#N)cc3c2=O)cc1F` [Example 105, (R)-3-(3-fluoro-4-methoxyphenyl)-4-oxo-8-(pyrimidin-5-yl)-2-(pyrrolidin-2-yl)-3,4-dihydroquinazoline-6-carbonitrile]?
Answer: EC50 [1]: 151 to 500 nM; EC50 [2]: 51 to 150 nM

Question: What does the source list for `COc1ccc(-n2c([C@H]3CCCN3)nc3c(F)c(F)c(F)cc3c2=O)cc1` [Example 16, (R)-6,7,8-trifluoro-3-(4-methoxyphenyl)-2-(pyrrolidin-2-yl)quinazolin-4 (3H)-one]?
Answer: EC50 [1]: > 1000 nM; EC50 [2]: 501 to 1000 nM

Question: Which results are given for `COCCOc1c(F)cc(-n2c(C3CCCN3)nc3c(-c4ccnc(C)c4)cc(C#N)cc3c2=O)cc1F` (centres unmarked) [Example 161, 3-(3,5-Difluoro-4-(2-methoxyethoxy)phenyl)-8-(2-methylpyridin-4-yl)-4-oxo-2-(pyrrolidin-2-yl)-3,4-dihydroquinazoline-6-carbonitrile]?
Answer: EC50 [1]: 151 to 500 nM; EC50 [2]: 51 to 150 nM

Question: Which EC50 [1] does the source give for `COc1ccc(-n2c(C3CCCN3)nc3c(-c4ccc(C#N)nc4)cc(C#N)cc3c2=O)cc1F` (centres unmarked) [Example 126, 8-(6-cyanopyridin-3-yl)-3-(3-fluoro-4-methoxyphenyl)-4-oxo-2-(pyrrolidin-2-yl)-3,4-dihydroquinazoline-6-carbonitrile] here?
Answer: Its EC50 is 51 to 150 nM.

Question: And the EC50 [2]?
Answer: Its EC50 is 1 to 50 nM.

Question: How did the EC50 [1] turn out when `COc1ccc(-n2c(C3CCCN3)nc3c(-c4cnc5ccccc5c4)cc(C#N)cc3c2=O)cc1F` (centres unmarked) [Example 123, 3-(3-fluoro-4-methoxyphenyl)-4-oxo-2-(pyrrolidin-2-yl)-8-(quinolin-3-yl)-3,4-dihydroquinazoline-6-carbonitrile] was run?
Answer: The EC50 was 1 to 50 nM.

Question: What about the EC50 [2] of the same compound?
Answer: Its EC50 is 1 to 50 nM.

Reference: patent publication US20220348558A1, “INHIBITORS OF ENCEPHALITIC ALPHAVIRUSES” (priority 2019, published 2022)
